In series [1] the test system is green peach aphid (Myzus persicae). In words: Myzus persicae spray test. The series is classed as in vivo. The settings on record: foliar, 120 h, 100 g/ha, after 5 days, Chinese cabbage leaf discs, read-out: efficacy. The procedure: Solvent: 78 parts by weight of acetone • • 1.5 parts by weight of dimethylformamide
(§1) Emulsifier: alkylaryl polyglycol ether
(§2) To produce a suitable active compound formulation, 1 part by weight of active compound is dissolved with the specified parts by weight of solvent and made up to the desired concentration with water containing an emulsifier concentration of 1000 ppm. To produce further test concentrations, the formulation is diluted with emulsifier-containing water.
Discs of Chinese cabbage leaves (Brassica pekinensis) infested by all stages of the green peach aphid (Myzus persicae) are sprayed with an active compound formulation of the desired concentration.
(§3) After 5 days, the efficacy in % is determined. 100% means that all the aphids have been killed; 0% means that no aphids have been killed.

The test system of series [2] is adult houseflies (Musca domestica). The series is described as follows: Musca domestica test. The format is in vivo. To be noted: after 2 days. On the procedure:
(§4) Solvent: dimethyl sulfoxide
(§5) To produce a suitable active compound formulation, 10 mg of active compound are mixed with 0.5 ml of dimethyl sulfoxide, and the concentrate is diluted with water to the desired concentration.
Vessels containing a sponge treated with sugar solution and the desired concentration of active compound formulation are populated with 10 adult houseflies (Musca domestica).
After 2 days, the kill in % is determined. 100% means that all of the flies have been killed; 0% means that none of the flies have been killed.

Series [3] deals with adult cat fleas (Ctenocephalides felis). The series is described as follows: Ctenocephalides felis oral test. The format is in vivo. To be noted: 48 h, 100 ppm in citrated cattle blood, after 2 days, read-out: efficacy (kill). On the procedure:
as §4
To produce a suitable active compound formulation, 10 mg of active compound are mixed with 0.5 ml of dimethyl sulfoxide. Dilution with citrated cattle blood gives the desired concentration.
About 20 unfed adult cat fleas (Ctenocephalides felis) are placed into a chamber which is closed at the top and bottom with gauze. A metal cylinder whose bottom end is closed with parafilm is placed onto the chamber. The cylinder contains the blood/active compound formulation, which can be imbibed by the fleas through the parafilm membrane.
After 2 days, the kill in % is determined. 100% means that all of the fleas have been killed; 0% means that none of the fleas have been killed.

Series [4] has the same test system. In words: Ctenocephalides felis in vitro contact test with adult cat fleas. The series is classed as in vivo. To be noted: application rate 5 μg/cm^2 (=500 g/ha), after 48 h, dead or moribund fleas. On the procedure:
For the coating of the test tubes, 9 mg of active compound are first dissolved in 1 ml of acetone p.a. and then diluted to the desired concentration with acetone p.a. 250 μl of the solution are distributed homogeneously on the inner walls and the base of a 25 ml glass tube by turning and rocking on an orbital shaker (rocking rotation at 30 rpm for 2 h). With 900 ppm of active compound solution and internal surface area 44.7 cm^2, given homogeneous distribution, an area-based dose of 5 μg/cm^2 is achieved.
After the solvent has evaporated off, the tubes are populated with 5-10 adult cat fleas (Ctenocephalides felis), sealed with a perforated plastic lid and incubated in a horizontal position at room temperature and ambient humidity. After 48 h, efficacy is determined. To this end, the tubes are stood upright and the fleas are knocked to the base of the tube. Fleas which remain motionless at the base or move in an uncoordinated manner are considered to be dead or moribund.
100% efficacy means that all the fleas were dead or moribund. 0% efficacy means that no fleas were harmed.

Series [5] deals with green peach aphids (Myzus persicae). The series is described as follows: Myzus persicae oral test. The series is classed as in vivo. The settings on record: 120 h, 4 ppm, after 5 days, read-out: efficacy. The procedure: Solvent: 100 parts by weight of acetone
To produce a suitable active compound formulation, 1 part by weight of active compound is dissolved with the stated parts by weight of solvent and made up to the desired concentration with water.
50 μl of the active compound formulation are transferred into microtitre plates and made up to a final volume of 200 μl with 150 μl of IPL41 insect medium (33%+15% sugar). Subsequently, the plates are sealed with parafilm, which a mixed population of green peach aphids (Myzus persicae) within a second microtitre plate is able to puncture and imbibe the solution.
as §3

Series [6] concerns caterpillars of the fall armyworm (Spodoptera frugiperda). The series is described as follows: Spodoptera frugiperda spray test. The settings on record: foliar, 168 h, 100 g/ha, after 7 days, maize leaf discs, read-out: efficacy. The series is classed as in vivo. On the procedure: (§6) Solvent: 78.0 parts by weight of acetone • • 1.5 parts by weight of dimethylformamide
as §1, §2
Leaf discs of maize (Zea mays) are sprayed with an active compound formulation of the desired concentration and, after drying, populated with caterpillars of the fall armyworm (Spodoptera frugiperda).
After 7 days, the efficacy in % is determined. 100% means that all the caterpillars have been killed; 0% means that no caterpillar has been killed.

The subject of series [7] is larvae of the mustard beetle (Phaedon cochleariae). In words: Phaedon cochleariae spray test. The series is classed as in vivo. The settings on record: foliar, 168 h, 100 g/ha, after 7 days, Chinese cabbage leaf discs, read-out: efficacy. The procedure:
as §6, §1, §2
Discs of Chinese cabbage leaves (Brassica pekinensis) are sprayed with an active compound formulation of the desired concentration and, after drying, populated with larvae of the mustard beetle (Phaedon cochleariae).
After 7 days, the efficacy in % is determined. 100% means that all the beetle larvae have been killed; 0% means that no beetle larvae have been killed.

Series [8] relates to L1 larvae of the Australian sheep blowfly (Lucilia cuprina). In words: Lucilia cuprina test. The format is in vivo. To be noted: 48 h, 100 ppm, after 2 days, read-out: efficacy (kill). The procedure: as §4, §5
About 20 L1 larvae of the Australian sheep blowfly (Lucilia cuprina) are transferred into a test vessel containing minced horsemeat and the active compound formulation of the desired concentration.
After 2 days, the kill in % is determined. 100% means that all the larvae have been killed; 0% means that no larvae have been killed.

Series [9] in a line: logP by HPLC on reversed-phase column (C18), acidic range. The format is physicochemical. To be noted: reversed-phase HPLC column (C18), formic acid in water/acetonitrile. The procedure:
The logP values were determined according to EEC Directive 79/831 Annex V.A8 by HPLC (high-performance liquid chromatography) on a reversed-phase column (C18) using the following methods:
Calibration was carried out using a homologous series of straight-chain alkan-2-ones (having 3 to 16 carbon atoms) with known logP values. The values between successive alkanones are determined by linear regression.

Series [10] relates to southern root-knot nematode (Meloidogyne incognita). In words: Meloidogyne incognita test. The format is in vivo. The settings on record: 20 ppm, after 14 days, lettuce. The procedure: Solvent: 125.0 parts by weight of acetone
To produce a suitable active compound formulation, 1 part by weight of active compound is mixed with the stated amount of solvent and the concentrate is diluted to the desired concentration with water.
Vessels are filled with sand, active compound solution, an egg/larvae suspension of the southern root-knot nematode (Meloidogyne incognita) and lettuce seeds. The lettuce seeds germinate and the plants develop. The galls develop on the roots.
After 14 days, the nematicidal efficacy in % is determined by the formation of galls. 100% means that no galls were found; 0% means that the number of galls on the treated plants corresponds to the untreated control.

The test system of series [11] is engorged adult female cattle ticks (Boophilus microplus). The series is described as follows: Boophilus microplus injection test. The settings on record: 20 μg/animal, injection into abdomen. The format is in vivo. The procedure:
as §4
To produce a suitable active compound formulation, 10 mg of active compound are mixed with 0.5 ml of solvent and the concentrate is diluted to the desired concentration with solvent.
1 μl of the active compound solution is injected into the abdomen of 5 engorged adult female cattle ticks (Boophilus microplus). The animals are transferred into dishes and kept in a climate-controlled room.
The activity is assessed after the desired time by laying of fertile eggs. Eggs which are not visibly fertile are stored in a climate-controlled cabinet until the larvae hatch after about 42 days. An efficacy of 100% means that none of the ticks has laid any fertile eggs; 0% means that all the eggs are fertile.

Consider `CCS(=O)(=O)c1c(-c2nc3cc(C(F)(F)F)cnc3n2C)nc2cc(NC(=O)C3CC3)ccn12` [Example I-01], for which the pest or weed control at 100 g/ha is 90% in series [1], 100% in series [6] and 100% in series [7]. In addition, the “efficacy (kill)” value in series [2] (100 ppm) was determined as 80%. Further, the pest or weed control at 100 ppm in series [3] and in series [8] was 100% in each case. The efficacy in series [4] stood at 100%. In [5], the pest or weed control at 4 ppm turned out to be 100%.
Turning to `CCS(=O)(=O)c1c(-c2nc3cc(C(F)(F)F)cnc3n2C)nc2cc(NC(=S)NC3CC3)ccn12` [Example I-05, 1-Cyclopropyl-3-{3-(ethylsulfonyl)-2-[3-methyl-6-(trifluoromethyl)-3H-imidazo[4,5-b]pyridin-2-yl]imidazo [1,2-a]pyridin-7-yl}thiourea], the pest or weed control at 100 g/ha amounted to 90% in [1], 100% in [6] and 100% in series [7]. Moreover, the “efficacy (kill)” value in [2] (100 ppm) was found to be 100%. Also, the pest or weed control at 100 ppm in series [3] and in series [8] was 100% each time. Besides, in [9], the chromatographic logP (commonly lipophilicity estimated from chromatographic retention) came to 2.71. In addition, the “nematicidal efficacy (formation of galls)” value in series [10] was 90%. In addition, in [5], the pest or weed control at 4 ppm came to 100%.
Regarding `CCS(=O)(=O)c1c(-c2nc3cc(C(F)(F)F)cnc3n2C)nc2cc(NS(=O)(=O)NC3CC3)ccn12` [Example I-07, N-Cyclopropyl-N′-{3-(ethylsulfonyl)-2-[3-methyl-6-(trifluoromethyl)-3H-imidazo[4,5-b]pyridin-2-yl]imidazo[1,2-a]pyridin-7-yl}sulfurdiamide], in [2] (100 ppm), the “efficacy (kill)” value came out at 80%. In addition, the pest or weed control at 100 ppm in series [3] and in series [8] was 100% each time. In addition, the chromatographic logP in series [9] was 2.55. In series [4], this compound had an efficacy of 100%. Also, the pest or weed control at 4 ppm in series [5] was 100%.
Turning to `CCS(=O)(=O)c1c(-c2nc3cc(C(F)(F)F)cnc3n2C)nc2cc(S(=O)(=O)C3CC3)ccn12` [Example I-09, 2-[7-(Cyclopropylsulfonyl)-3-(ethylsulfonyl)imidazo[1,2-a]pyridin-2-yl]-3-methyl-6-(trifluoromethyl)-3H-imidazo[4,5-b]pyridine], the pest or weed control at 100 g/ha in series [1] was determined as 90%; in series [6] it was 100%; in series [7] it was 100%. The “efficacy (kill)” value in [2] (20 ppm) amounted to 80%. Moreover, the pest or weed control at 100 ppm in series [3] and in series [8] was 100% throughout. The compound further showed a chromatographic logP in series [9] of 2.89. In addition, in series [4], the efficacy turned out to be 100%. Besides, in series [5], the pest or weed control at 4 ppm amounted to 100%.
Consider `CCS(=O)(=O)c1c(-c2nc3cc(SC(F)(F)F)cnc3n2C)nc2cc(S(=O)(=O)C3CC3)ccn12` [Example I-12], for which the pest or weed control at 100 g/ha in series [1], in series [6] and in [7] was 100% in each case. In [2] (100 ppm), the “efficacy (kill)” value is listed as 100%. Further, the pest or weed control at 100 ppm in series [3] turned out to be 100%. Besides, the pest or weed control at 4 ppm in series [5] is 100%.
Take `CCS(=O)(=O)c1c(-c2nc3cc(SC(F)(F)F)cnc3n2C)nc2cc(NC(=O)C3CC3)ccn12` [Example I-13]: the pest or weed control at 100 g/ha in series [1] stood at 90%; in [6] it was 100%; in [7], 100%. The pest or weed control at 100 ppm in series [3] and in [8] was 100% each time. In series [4], this compound gave an efficacy of 100%. Moreover, the pest or weed control at 4 ppm in series [5] stood at 100%.
With `CCS(=O)(=O)c1c(-c2nc3cc(C(F)(F)F)cnc3n2C)nc2cc(C(=O)C3CC3)ccn12` [Example I-20], in series [11], the “efficacy (no laying of fertile eggs)” value is 80%. The pest or weed control at 100 g/ha in series [6] and in series [7] was 100% each time.
On to `CCS(=O)(=O)c1c(-c2nc3cc(C(F)(F)F)cnc3n2C)nc2cc(C(F)(F)C3CC3)ccn12` [Example I-21], for which the pest or weed control at 100 ppm in [3] was found to be 100%. In addition, the “efficacy (no laying of fertile eggs)” value in series [11] is reported as 90%. Also, the pest or weed control at 100 g/ha in series [6] and in series [7] was 100% throughout.

The record behind these values is USRE50663E1, “Heterocycle derivatives as pesticides” (Bayer Aktiengesellschaft, priority 2017, dated 2025).
